This is an account of results in patent publication US11261170B2, “Aromatic compound, pharmaceutical composition and use thereof” (Sichuan Kelun-Biotech Biopharmaceutical Co., Ltd., priority 2017, dated 2022).

The nature of series [1]: Cytotoxicity test on HEK293 cells (CellTiter Glo). The format is cell-based. As to conditions: human, incubated for 3 days. The protocol:
(§1) Test Example 4: Cytotoxicity Test of Compound on HepG2 & Hek293 Cells
(§2) Cells: human hepatocyte HepG2, purchased from ATCC; Human embryonic kidney cells HEK293: purchased from ATCC;
(§3) Assay reagent: CellTiter Glo® Luminescent Cell Viability Assay, purchased from Promega.
(§4) HepG2 and HEK293 cells were incubated in DMEM/F12 medium containing 10% of fetal bovine serum respectively. A proper amount of cells were plated into a 96-well plate, the plate was placed in an incubator overnight, and the culture medium was removed, and replaced with a complete culture medium containing the compound of the application, and incubated for 3 days. On day 4, an assay reagent CellTiter Glo was added to each well, and the relative luminous unit (RLU) of each well was determined by chemiluminescence. CC50 values of the compound of the application to HepG2 and HEK293 cells were calculated by GraphPad software, and the results were shown in Table 3.
Background: Cellular ATP, detected with luciferase, serves as a proxy for viable cell number.

In a further series the target is PPARγ (Homo sapiens (Human), UniProt P37231). The series can be described thus: Activation of PPARγ in genetically engineered CHO-K1 cells (PathHunter). The format is cell-based. As to conditions: PathHunter CHO-K1 PPARγ cell line, agonist format, 6 hours. The text has this: (§5) Test Example 3: Experiment of Compounds on Activation of PPAR α, δ and γ in Genetically Engineered CHO-K1 Cells
Chain of PPARγ (P37231 whole entry): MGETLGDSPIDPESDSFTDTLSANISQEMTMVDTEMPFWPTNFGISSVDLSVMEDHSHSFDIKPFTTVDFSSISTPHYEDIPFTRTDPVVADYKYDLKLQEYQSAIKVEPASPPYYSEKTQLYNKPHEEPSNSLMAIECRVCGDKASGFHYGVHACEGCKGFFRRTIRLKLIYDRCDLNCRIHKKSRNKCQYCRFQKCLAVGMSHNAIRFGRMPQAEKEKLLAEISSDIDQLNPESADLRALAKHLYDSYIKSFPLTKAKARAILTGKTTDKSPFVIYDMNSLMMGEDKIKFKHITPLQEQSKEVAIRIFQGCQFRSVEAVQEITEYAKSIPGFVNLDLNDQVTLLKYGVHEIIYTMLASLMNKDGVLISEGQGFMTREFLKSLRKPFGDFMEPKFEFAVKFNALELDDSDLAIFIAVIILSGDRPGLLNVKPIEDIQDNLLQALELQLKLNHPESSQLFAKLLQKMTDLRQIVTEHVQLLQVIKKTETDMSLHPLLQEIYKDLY
(§6) Cell: PathHunter® CHO-K1 PPARα Protein Interaction Cell Line, PathHunter® CHO-K1 PPARδ Protein Interaction Cell Line and PathHunter® CHO-K1 PPARγ Protein Interaction Cell Line, provided by DiscoverX®.
(§7) Assay kit: PathHunter® Detection Kit, provided by DiscoverX®.
(§8) 1) Cell Handling: PathHunter NHR (nuclear hormone receptor, PPARα, δ, γ) cell lines were expanded from freezer stocks according to standard procedures. Cells were seeded in a total volume of 20 μL into white walled, 384-well microplates and incubated at 37° C., 5% CO2 for the appropriate time prior to testing. […]
(§9) 3) Signal detection: Assay signal was generated through a single addition of 12.5 or 15 μL (50% v/v) of PathHunter Detection reagent cocktail, followed by one-hour-incubation at room temperature. Microplates were read following signal generation with a PerkinElmer Envision™ instrument for chemiluminescent signal detection.
(§10) 4) Data analysis: Both compound activity and EC50S were analyzed using CBIS data analysis suite (ChemInnovation, CA). For agonist mode assays, percentage activity was calculated using the following formula: % Activity=100%×(mean RLU of test sample−mean RLU of vehicle control)/(mean MAX control ligand−mean RLU of vehicle control).

The nature of series [2]: Cytotoxicity test on HepG2 cells (CellTiter Glo). The format is cell-based. As to conditions: human, incubated for 3 days. As to the method: as §1, §2, §3, §4
For series [3], the target named is T1, PPARα (Homo sapiens (Human), UniProt Q07869). Nature of the series: Activation of transient transfected PPAR α in HEK293 cells (GAL4-hPPAR α luciferase assay). Conditions: HEK293 transfected with GAL4-hPPAR α, 24 h incubation. The format is cell-based. The protocol:
Test example 1: Experiment of the compounds on activation of transient transfected PPAR α in HEK293 cells
Plasmid: pcDNA3.1(+)-GAL4-hPPAR α, customized by Nanjing Kebai Biotechnology Co., Ltd.
(§11) Liposome: PGL4.35, customized by Nanjing Kebai Biotechnology Co., Ltd.
(§12) Cell: human embryonic kidney cells HEK293, purchased from ATCC.
(§13) Transfection reagent: Lipofectamine Reagent 3000 purchased from Invitrogen.
(§14) Assay kit: Bright Glo™ Luciferase Assay System purchased from Promega.
(§15) HEK293 cells were incubated in DMEM medium containing 10% of fetal bovine serum at 37° C. in the presence of 5% of CO2. 3×10^5/ml cells were plated in each well of the 6-well plate. When the cell convergence degree reached 50%-80%, 5 μg of liposome PGL4.35 and 5 μg of expression plasmid pcDNA3.1(+)-GAL4-hPPAR α were added to transfect the cells for 24 h and then the cells were collected. The transfected cells were plated in the 96-well plate and the compounds of the application in different concentrations were added, incubated for 24 h, and Bright Glo™ Luciferase Assay System reagent was added for luciferase assay.
Target sequence in this assay (Q07869 whole entry, looked up, the tested form may be a part): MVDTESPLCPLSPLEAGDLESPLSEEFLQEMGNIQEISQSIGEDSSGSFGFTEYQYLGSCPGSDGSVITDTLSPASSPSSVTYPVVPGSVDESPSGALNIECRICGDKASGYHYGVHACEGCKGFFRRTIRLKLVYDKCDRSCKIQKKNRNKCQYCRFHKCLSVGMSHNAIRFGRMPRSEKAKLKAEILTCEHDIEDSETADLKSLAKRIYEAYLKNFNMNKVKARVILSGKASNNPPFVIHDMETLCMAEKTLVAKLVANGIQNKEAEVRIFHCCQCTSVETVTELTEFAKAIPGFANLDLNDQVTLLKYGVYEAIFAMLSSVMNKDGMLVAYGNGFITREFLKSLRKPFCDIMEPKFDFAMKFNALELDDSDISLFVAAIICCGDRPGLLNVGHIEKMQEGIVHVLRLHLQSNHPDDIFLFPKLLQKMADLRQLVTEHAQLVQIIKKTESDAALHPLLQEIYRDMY

In series [4] the test system is MCD model of non-alcoholic steatohepatitis. Nature of the series: In vivo efficacy study in the MCD model of non-alcoholic steatohepatitis. On the set-up: species or system C57 Mice. Conditions: MCD diet mice. As to the method:
Test Example 6: In Vivo Efficacy Study of Compound in the MCD Model of Non-Alcoholic Steatohepatitis In this example, comparative test between compound GFT505 from WO2018133705A1 and compounds of the invention was conducted, so as to show the advantages of compounds of the invention. C57 Mice at 8-10 weeks of age (purchased from Vital River Laboratories) were body-weight matched and randomly divided into groups of normal, model, control and test. Mice in normal group were fed with standard chow for 9 weeks. Mice in model group, control group and test group were fed with MCD diet (Methionine-Choline Deficient Diet, Research Diets) for 9 weeks to induce NASH Model. During weeks 5-9 of the 9-week course of MCD diet, the control group and the test group were treated with GFT505 and TM4 of the invention, respectively, and the normal group and model group were treated with 0.5% MC. The dosage regimen was specified in table 5. [table] Animals were dissected after administration on day 35, livers were collected for H&E staining (hematoxylin-eosin staining) and sirius red staining. And then NAFLD activity score, including liver steatosis score, inflammation score and ballooning score, and liver fibrosis score were conducted.

The target in series [5] is T2, PPARδ (Homo sapiens (Human), UniProt Q03181). Nature of the series: Activation of transient transfected PPAR δ in HEK293 cells (GAL4-hPPAR δ luciferase assay). The format is cell-based. As to conditions: HEK293 transfected with GAL4-hPPAR δ, 24 h incubation. The protocol: Test Example 2: Experiment of the Compounds on Activation of Transient Transfected PPAR δ in HEK293 Cells
Plasmid: pcDNA3.1(+)-GAL4-hPPAR δ, customized by Nanjing Kebai Biotechnology Co., Ltd.
as §11, §12, §13, §14
as §15, with “δ” for “α”, “Then, the” for “The”, “reagent” for “reagent was added”, “assay was added.” for “assay.”
Target sequence in this assay (Q03181 whole entry, looked up, the tested form may be a part): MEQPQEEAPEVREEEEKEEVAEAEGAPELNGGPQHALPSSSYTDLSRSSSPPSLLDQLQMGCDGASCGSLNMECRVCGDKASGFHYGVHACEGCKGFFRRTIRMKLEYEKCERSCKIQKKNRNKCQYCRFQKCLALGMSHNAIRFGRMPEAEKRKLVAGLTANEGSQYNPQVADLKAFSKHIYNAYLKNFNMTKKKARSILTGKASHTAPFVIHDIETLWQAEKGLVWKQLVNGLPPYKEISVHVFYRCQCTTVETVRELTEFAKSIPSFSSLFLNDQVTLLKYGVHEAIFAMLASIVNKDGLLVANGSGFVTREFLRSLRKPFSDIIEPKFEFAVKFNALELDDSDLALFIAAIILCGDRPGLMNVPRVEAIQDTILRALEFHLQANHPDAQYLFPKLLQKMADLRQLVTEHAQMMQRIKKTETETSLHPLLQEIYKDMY

The target of series [6] is hERG potassium ion channel (Homo sapiens (Human), UniProt Q12809). Nature of the series: Predictor hERG fluorescence polarization. It counts as binding. The protocol:
Test Example 5: In Vitro Safety Test
The effect of the compound on hERG potassium ion channel was tested by Predictor™ hERG fluorescence polarization.

The target of series [7] is T2, PPARδ. Nature of the series: Activation of PPARδ in genetically engineered CHO-K1 cells (PathHunter). The format is cell-based. As to conditions: PathHunter CHO-K1 PPARδ cell line, agonist format, 6 hours.
Description: as §5, §6, §7, §8, §9, §10
Target sequence in this assay (Q03181 whole entry, the tested form may be a part): as the sequence (Q03181 whole entry, looked up, the tested form may be a part) above

In series [8] the target is T1, PPARα. Nature of the series: Activation of PPARα in genetically engineered CHO-K1 cells (PathHunter). It counts as cell-based. As to conditions: PathHunter CHO-K1 PPARα cell line, agonist format, 6 hours.
Description: as §5, §6, §7, §8, §9, §10
Target sequence in this assay (Q07869 whole entry, the tested form may be a part): as the sequence (Q07869 whole entry, looked up, the tested form may be a part) above

[9] abbreviates: 1 mg/kg intragastric once every day for 35 days.
[10] abbreviates: 1 mg/kg, 35 days, result in words.

pEC50, pIC50: −log10 of the molar value. Marks after values point to notes of the source that are not given here. Some results are limits rather than exact numbers.

Chain of hERG potassium ion channel (Q12809 whole entry): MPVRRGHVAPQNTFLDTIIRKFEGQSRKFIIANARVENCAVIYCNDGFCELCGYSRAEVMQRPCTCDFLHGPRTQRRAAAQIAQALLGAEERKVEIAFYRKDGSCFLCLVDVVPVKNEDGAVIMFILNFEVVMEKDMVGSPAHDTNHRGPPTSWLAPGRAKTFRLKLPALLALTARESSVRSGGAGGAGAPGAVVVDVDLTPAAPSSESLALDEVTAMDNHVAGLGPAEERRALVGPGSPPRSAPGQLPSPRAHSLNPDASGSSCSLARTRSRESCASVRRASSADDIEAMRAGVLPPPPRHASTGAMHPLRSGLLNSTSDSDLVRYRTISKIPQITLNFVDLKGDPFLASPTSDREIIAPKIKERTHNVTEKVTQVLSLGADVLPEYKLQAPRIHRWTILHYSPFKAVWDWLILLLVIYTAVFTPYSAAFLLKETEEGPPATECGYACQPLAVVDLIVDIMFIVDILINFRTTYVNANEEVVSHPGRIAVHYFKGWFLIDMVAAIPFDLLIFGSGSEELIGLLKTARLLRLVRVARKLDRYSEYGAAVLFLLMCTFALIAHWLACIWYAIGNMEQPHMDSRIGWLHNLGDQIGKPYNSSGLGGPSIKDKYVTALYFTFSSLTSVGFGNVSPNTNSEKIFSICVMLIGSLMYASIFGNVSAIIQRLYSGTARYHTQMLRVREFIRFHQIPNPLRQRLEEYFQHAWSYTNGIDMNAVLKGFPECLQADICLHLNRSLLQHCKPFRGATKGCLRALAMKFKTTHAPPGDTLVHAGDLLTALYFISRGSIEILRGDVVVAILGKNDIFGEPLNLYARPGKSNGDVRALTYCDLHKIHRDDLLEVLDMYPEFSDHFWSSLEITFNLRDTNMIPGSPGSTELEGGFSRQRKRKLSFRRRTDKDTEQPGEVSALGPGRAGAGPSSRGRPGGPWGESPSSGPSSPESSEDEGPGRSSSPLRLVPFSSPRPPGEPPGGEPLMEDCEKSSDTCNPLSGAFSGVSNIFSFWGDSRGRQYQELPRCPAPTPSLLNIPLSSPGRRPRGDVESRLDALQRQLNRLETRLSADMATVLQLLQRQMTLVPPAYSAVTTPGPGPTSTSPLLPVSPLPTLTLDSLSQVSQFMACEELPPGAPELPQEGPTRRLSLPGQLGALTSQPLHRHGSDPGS

Broadly, the CC50 is the concentration giving 50% cytotoxicity. Low readings indicate harm at low concentration, high ones better tolerance by the cells. Usually pEC50 stands for the negative decadic logarithm of the EC50, by convention in mol/L. Higher therefore signals a small EC50. As usually defined, the pIC50 is the IC50 on a negative log10 scale, so that one unit is a factor of ten. Take `COc1nc2ccccc2cc1C(=O)/C=C/c1cc(C)c(OC(C)(C)C(=O)O)c(C)c1` [Example 5, (E)-2-(4-(3-(2-methoxyquinolin-3-yl)-3-oxo-1-propen-1-yl)-2,6-dimethylphenoxy)-2-met hylpropionic acid]: the results for the CC50 at 3 days in [1] and in series [2] were 7130 nM and 13000 nM, respectively. Also, the pEC50 on PPARγ was 6.76; at PPARα [3], 7.55; on PPARδ [5] it was 6.26; at PPARδ [7], 6.10; on PPARα [8] it was 7.64. The “Liver fibrosis score (Mean ± SD)” value in series [4] (setting [9]) is recorded as 0.88 ± 0.35^b. Also, the “NAFLD activity score (Mean ± SD)” value in series [4] (setting [9]) is 3.00 ± 0.93^b. For the same molecule, the “Reduction of NAFLD activity score compared with model group” value in series [4] (setting [10]) is recorded as “significant reduction”. In addition, in series [4] (setting [10]), the “Reduction of liver fibrosis score compared with model group” value is recorded as “significant reduction”. Besides, in series [6], the negative-log IC50 (pIC50) is < 5.00.

For the molecule `COc1nc2ccccc2cc1C(=O)CCc1cc(C)c(OC(C)(C)C(=O)O)c(C)c1` [TM42, 2-(4-(3-(2-methoxyquinolin-3-yl)-3-oxopropyl)-2,6-dimethylphenoxy)-2-methylpropanoic acid], the results for the pEC50 on PPARγ, on PPARδ [7] and on PPARα [8] were 5.71, 6.30 and 7.20, respectively.
